According to paper PMC8843742, “Eltrombopag inhibits TET dioxygenase to contribute to hematopoietic stem cell expansion in aplastic anemia” (The Journal of Clinical Investigation, 2022):

What was measured:
[1] = biological target: T1, thrombopoietin receptor (human TPOR) (Homo sapiens, UniProt P40238); assay: STAT5 phosphorylation Western blot in parental vs human TPOR-expressing murine cells, […]; format: cell-based
T1 construct: gene MPL; MPL open reading frame (NM_005373.2) in pCMV-3Tag-3a, expressed in BaF3 and 32D cells
T1 sequence (P40238 26-635): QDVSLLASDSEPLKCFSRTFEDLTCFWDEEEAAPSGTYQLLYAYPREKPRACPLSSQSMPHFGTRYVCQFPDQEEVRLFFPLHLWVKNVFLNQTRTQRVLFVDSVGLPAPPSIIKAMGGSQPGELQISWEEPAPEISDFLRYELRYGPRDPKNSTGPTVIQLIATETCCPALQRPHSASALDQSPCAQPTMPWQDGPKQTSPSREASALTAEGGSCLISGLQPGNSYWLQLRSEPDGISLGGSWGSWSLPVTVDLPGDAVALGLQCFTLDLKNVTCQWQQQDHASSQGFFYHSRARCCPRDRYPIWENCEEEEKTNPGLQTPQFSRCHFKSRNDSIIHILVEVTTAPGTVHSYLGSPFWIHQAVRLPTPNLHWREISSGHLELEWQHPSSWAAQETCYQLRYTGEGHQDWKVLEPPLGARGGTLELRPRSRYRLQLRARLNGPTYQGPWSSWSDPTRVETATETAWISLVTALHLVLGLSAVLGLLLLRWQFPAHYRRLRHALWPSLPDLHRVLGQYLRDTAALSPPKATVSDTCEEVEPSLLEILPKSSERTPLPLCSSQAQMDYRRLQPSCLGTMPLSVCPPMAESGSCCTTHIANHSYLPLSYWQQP

TET1 = biological target: T2, TET1 (Homo sapiens, UniProt Q8NFU7); assay: 5hmC ELISA with recombinant protein; format: biochemical
T2 construct: recombinant catalytic domain (Epigentek, E12002-1)
T2 sequence (Q8NFU7 1418-2136 limits assumed): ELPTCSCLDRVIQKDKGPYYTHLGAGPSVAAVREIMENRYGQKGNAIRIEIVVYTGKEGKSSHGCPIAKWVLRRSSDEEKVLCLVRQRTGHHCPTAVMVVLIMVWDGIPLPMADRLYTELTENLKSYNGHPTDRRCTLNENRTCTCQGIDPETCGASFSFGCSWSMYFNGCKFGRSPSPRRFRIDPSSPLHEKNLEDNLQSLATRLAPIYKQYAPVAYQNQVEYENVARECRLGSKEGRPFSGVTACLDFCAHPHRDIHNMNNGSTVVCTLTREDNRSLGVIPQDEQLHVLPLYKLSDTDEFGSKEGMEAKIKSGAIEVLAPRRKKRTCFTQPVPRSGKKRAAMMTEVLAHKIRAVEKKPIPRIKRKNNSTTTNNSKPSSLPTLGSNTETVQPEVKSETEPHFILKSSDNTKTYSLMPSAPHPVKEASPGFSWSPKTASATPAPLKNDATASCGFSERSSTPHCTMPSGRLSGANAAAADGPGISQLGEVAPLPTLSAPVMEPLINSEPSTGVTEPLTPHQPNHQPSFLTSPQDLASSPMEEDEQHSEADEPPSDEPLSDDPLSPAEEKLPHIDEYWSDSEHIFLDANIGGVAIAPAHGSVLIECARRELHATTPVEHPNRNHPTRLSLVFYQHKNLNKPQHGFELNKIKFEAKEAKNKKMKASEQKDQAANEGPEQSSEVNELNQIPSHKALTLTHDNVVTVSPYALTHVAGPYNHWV

TET3 = biological target: T3, TET3 (Homo sapiens, UniProt O43151); assay: 5hmC ELISA with recombinant protein; format: biochemical
T3 construct: recombinant catalytic domain (BPS Bioscience, 50163)
T3 sequence (O43151 850-1795 limits assumed): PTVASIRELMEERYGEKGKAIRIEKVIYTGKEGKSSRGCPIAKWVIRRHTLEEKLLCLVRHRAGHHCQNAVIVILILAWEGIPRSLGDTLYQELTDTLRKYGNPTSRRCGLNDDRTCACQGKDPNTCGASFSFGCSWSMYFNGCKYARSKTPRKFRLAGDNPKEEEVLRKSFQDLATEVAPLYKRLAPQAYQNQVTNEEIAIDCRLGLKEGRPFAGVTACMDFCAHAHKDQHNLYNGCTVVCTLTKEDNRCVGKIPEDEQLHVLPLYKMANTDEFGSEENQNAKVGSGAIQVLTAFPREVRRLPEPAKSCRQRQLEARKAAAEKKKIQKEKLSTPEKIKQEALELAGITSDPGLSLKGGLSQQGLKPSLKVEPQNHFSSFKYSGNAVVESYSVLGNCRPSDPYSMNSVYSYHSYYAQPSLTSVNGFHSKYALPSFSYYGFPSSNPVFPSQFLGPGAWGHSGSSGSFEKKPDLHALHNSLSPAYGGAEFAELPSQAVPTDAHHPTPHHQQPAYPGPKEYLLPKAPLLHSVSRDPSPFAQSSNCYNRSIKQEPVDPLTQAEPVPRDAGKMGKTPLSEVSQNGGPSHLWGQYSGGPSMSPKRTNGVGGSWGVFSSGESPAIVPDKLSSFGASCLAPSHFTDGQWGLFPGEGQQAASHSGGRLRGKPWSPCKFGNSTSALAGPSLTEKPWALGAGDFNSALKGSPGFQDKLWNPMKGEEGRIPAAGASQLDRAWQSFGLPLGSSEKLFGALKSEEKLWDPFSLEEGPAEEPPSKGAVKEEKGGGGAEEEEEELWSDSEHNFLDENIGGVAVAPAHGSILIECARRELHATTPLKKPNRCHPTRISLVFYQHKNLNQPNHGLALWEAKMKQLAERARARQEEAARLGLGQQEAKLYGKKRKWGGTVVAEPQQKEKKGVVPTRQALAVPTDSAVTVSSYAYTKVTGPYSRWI

With `O=C(Nc1nc(-c2cc(Cl)cs2)c(N2CCN(C3CCCCC3)CC2)s1)c1cnc(N2CCC(C(=O)O)CC2)c(Cl)c1` [Apag, avatrombopag] the “STAT5 phosphorylation Western blot in parental vs human TPOR-expressing murine c” value [1] was “a chemically unrelated non-peptidyl TPOR agonist) all activated the JAK/STAT pathway to the same extent in these cells”.
With `CC1=NN(c2ccc(C)c(C)c2)C(=O)/C1=N\Nc1cccc(-c2cccc(C(=O)O)c2)c1O` [Epag, Eltrombopag] the IC50 (TET1) was 1000 ± 100 nM, the “STAT5 phosphorylation Western blot in parental vs human TPOR-expressing murine c” value [1] was “Reconstitution of human TPOR in murine cells restored STAT5 phosphorylation without any measurable changes in the dioxygenase activity” and the IC50 (TET3) was 1800 ± 100 nM.
